According to patent US20260184807A1, “Methods for Treating Rheumatoid Arthritis Using a Syndecan-1 Inhibitor or Syntenin-1 Inhibitor” (The United States Government as represented by the …, priority 2022, published 2026):

Test system: RA FLS
Test: RA FLS scratch assay
Type: cell-based, human
Details: Syntenin-1 1000 ng/ml 24 h; SDC1-Ab 1:100, mTORi 1 μM, HIF1αi 2 μM; FIGS. 16J-K
Procedure: RA STs were fluorescently stained to authenticate the colocalization of Mitofusin (MFN2) (FIGS. 16A-B) and DRP1 (FIGS. 16C-D) expression on Vimentin^+ FLS in the presence or absence of DAPI, (n=3, original magnification×60 or 500). RA FLS were treated with Syntenin-1 (1000 ng/ml) for 0-60 min to detect Mitofusin-2 and DRP1 expression (FIG. 16E, n=3) and actin served as equal loading, (n=3). RA FLS were treated with Syntenin-1 (1000 ng/ml) in the presence or absence of HIF1αi (2 μM) for 6 h to determine transcription of IL-1β (FIG. 16F, n=6), IL-6 (FIG. 16G, n=5), IL-8 (FIG. 16H, n=5) and CCL2 (I, n=6) by real-time RT-PCR. […] The number of cells in the scratch area was counted and compared to the untreated control, (K, n=4). RA FLS were treated with PBS or Syntenin-1 (1000 ng/ml) in the presence or absence of SDC-1 Ab (SDCab: 1:100), IL-5R Ab (IL5Ra; 2 μg/ml), or PDZli (PDZ1; 10 μM), and/or HIF1αi (2 μM) or mTORi ([…]) for 6 h before quantifying transcription levels of VEGF (FIG. 16L, n=5) and Notch1, FGF2, CXCL1, CXCL5 (FIG. 16K or 16M, n=8 or 7). Data are presented as mean±SEM; significant differences were determined by the Mann-Whitney test, 2way ANOVA, or one-way ANOVA. *p<0.05, **p<0.01, ***p<0.001, ****p<0.0001.
RA FLS and HUVEC scratch assay. […] The number of cells in the scratch area was counted and compared to the untreated control.

CO[C@H]1C[C@@H]2CC[C@@H](C)[C@@](O)(O2)C(=O)C(=O)N2CCCC[C@H]2C(=O)O[C@H]([C@H](C)C[C@@H]2CC[C@@H](OCCO)[C@H](OC)C2)CC(=O)[C@H](C)/C=C(\C)[C@@H](O)[C@@H](OC)C(=O)[C@H](C)C[C@H](C)/C=C/C=C/C=C/1C [mTORi, Everolimus]
Syntenin-1-driven RA FLS migration: intercepted
